Assay results from patent publication US20150283287A1, “METHODS AND COMPOSITIONS FOR WOUND HEALING” (IMBED BIOSCIENCES, INC., priority 2012, published 2015).

Key:
[1] = system: incisional wounds; details: in vivo; cited from earlier work
[2] = system: mammalian cells; details: cited from earlier work
[3] = system: P. aeruginosa (ATCC 27853) biofilms; assay: Inhibition of biofilm formation (crystal violet staining); format: cell-based, Pseudomonas aeruginosa
Description: During the development of embodiments of the technology provided herein, experiments were conducted to determine the minimum concentration of Ga (e.g., as Ga(NO3)3) to inhibit biofilm formation. In particular, Ga was added to cultures of Pseudomonas aeruginosa in biofilm growth media (500 μL of 1% tryptic soy broth (TSB)) to test the inhibition of biofilm formation at the bottom of 48-well tissue culture plates.
Biofilm growth arising from suspensions of 10^6 CFU/ml P. aeruginosa (ATCC 27853) was quantified after 24, 48, and 72 hours by staining biofilms with crystal violet, following methods described previously (Brandenburg et al. Tryptophan Inhibits Biofilm Formation by Pseudomonas aeruginosa. Antimicrobial Agents and Chemotherapy. 2013; 57:1921-5).

[4] = system: established biofilms; details: in TSB; cited from earlier work

SMILES | Fibroblastic proliferation [1] | Production of collagen [1] | Concentrations not cytotoxic to mammalian cells [2] | Effect on free (planktonic) bacterial counts ([3]; 25 μM) | Concentration in solution sufficient to completely inhibit biofilm formation ([3]; 72 hours, 10^6 CFU/ml in 1% TSB) [µM] | Concentration that disperses established biofilms [4] [µM]
CC1=C(/C=C/C(C)=C/C=C/C(C)=C/C(=O)O)C(C)(C)CCC1 [tretinoin] | increased | diminished | – | – | – | –
O=[N+]([O-])[O-].O=[N+]([O-])[O-].O=[N+]([O-])[O-].[Ga+3] [Ga^3+, Ga(NO3)3] | – | – | up to 1 mM | not bactericidal | 25 | 100
